Test results published in US8962322B2, “Enhancers of induced pluripotent stem cell reprogramming” (City of Hope, priority 2012, dated 2015).
Where two headings read alike, the source gives them in different places.

Tests used:
human Oct4 promoter = test: Oct4-luc luciferase reporter assay (stably transfected CV1 cells); assay type: cell-based; settings: for fold induction at 1 µM: compound at 1 μM, Oct4-luc cells, triplicates
Excerpt: A high-throughput screening scheme was designed to identify Oct4 promoter-activating compounds using a luciferase reporter under the control of the human Oct4 promoter (Oct4-luc). […] A stable cell line (Oct4-luc) that expresses luciferase reporter driven by the exogenous Oct4 promoter was established using hygromycin-resistance as a selection marker. These Oct4-luc cells were used for high-throughput screening of a chemical library of 80,000 compounds. The luciferase reporter activity was measured 24 hr after compound treatment. Solvent treatment was included as a negative control.
(§1) Then the promoter sequences were cloned into pGL4.4-luc-Hyg vector (Promega) to get Oct4-luc or Nanog-luc construct and the fidelity of the Oct4 and Nanog promoter DNA sequences was confirmed by bi-directional sequencing. CV 1 cells were transfected with the Oct4-luc or Nanog-luc constructs and the stably-transfected cells were selected by hygromycine resistance.
Compound Screening: The Oct4-luc cells were seeded at 1.75×10^4 cells per well density into 96-well plates. Compounds were added to cells one day after cell seeding at the concentration of 10 μM for 24 hr in the High-Throughput Screening core facility at City of Hope. Compounds that induced luciferase activity 3-fold or more were selected for further validation in both Oct4-luc and Nanog-luc cells.
(§2) Luciferase Reporter Assays: The Oct4-luc or Nanog-luc cells were treated with compound OAC 1 or its structural analogs at 1 μM concentration or at indicated concentrations in triplicates. Other compounds used include 2 μM BIO, 2 μM BIX, 2 μM
(§3) AzaC, 25 μg/ml Vc, 10 nM Am580, 5 μM tranylcypromine, and 0.5 mM VPA. Luciferase reporter assays were performed as described (51) 24 hr after compound treatment or at indicated time points. For Topflash reporter assays, 0.2 μg β-catenin-responsive Topflash reporter gene plasmid was introduced into CV1 cells using trasfection (Bio-Rad). Compounds were added 6 hr after transfection. Luciferase activity was measured 48 hr after compound treatment using the Glo Luciferase Assay System (Promega).

p53 = test: RT-PCR of p53 expression in treated MEFs; assay type: cell-based, mouse; settings: MEFs treated for two days
Protocol: Inhibition of the p53-p21 signaling increased reprogramming efficiency (26, 28-31, 41). To investigate whether compound OAC1 enhanced reprogramming efficiency by affecting this pathway, MEFs were treated with vehicle control or OAC1 and determined the expression level of p53 and p21 in the treated cells.
RT-PCR analysis: Total RNA was purified with Trizol reagent (Invitrogen). Reverse transcription was performed with 1 μg of RNA using Omniscript® Reverse Transcription Kit (Qiagen). Quantitative PCR was performed using iTaq SYBR Green Supermix with Rox (Bio-rad) in Applied Biosystem Step one plus real-time PCR system. […]

human Nanog promoter = test: Nanog-luc luciferase reporter assay (stably transfected CV1 cells); assay type: cell-based
Protocol: Oct4, Sox2, and Nanog form a positive regulatory loop to regulate the expression of each other, and Nanog is considered a downstream target gene of Oct4 and Sox2 (37). Therefore, activation of Nanog promoter was used as a validation assay for the identified compounds. Specifically, the Oct4 promoter-activating compounds were tested to ascertain whether they activate a human
Nanog promoter-driven luciferase reporter gene using in triplicate luciferase reporter assays.
as §1, §2, §3

luciferase [1] = biological target: T1, luciferase (Photinus pyralis, UniProt P08659); settings: cited from earlier work
luciferase [2] = biological target: T1, luciferase; settings: read-out: EC50 of luciferase inhibition; at 40° C., loss of enzymatic activity as measurement; cited from earlier work
[3] = OAC1 1 μM, BIO 2 μM, BIX 2 μM, AzaC 2 μM, Vc 25 μg/ml, Am580 10 nM, tranylcypromine 5 μM, VPA 0.5 mM, two days
[4] = triplicate luciferase reporter assays

T1 sequence (P08659 whole entry): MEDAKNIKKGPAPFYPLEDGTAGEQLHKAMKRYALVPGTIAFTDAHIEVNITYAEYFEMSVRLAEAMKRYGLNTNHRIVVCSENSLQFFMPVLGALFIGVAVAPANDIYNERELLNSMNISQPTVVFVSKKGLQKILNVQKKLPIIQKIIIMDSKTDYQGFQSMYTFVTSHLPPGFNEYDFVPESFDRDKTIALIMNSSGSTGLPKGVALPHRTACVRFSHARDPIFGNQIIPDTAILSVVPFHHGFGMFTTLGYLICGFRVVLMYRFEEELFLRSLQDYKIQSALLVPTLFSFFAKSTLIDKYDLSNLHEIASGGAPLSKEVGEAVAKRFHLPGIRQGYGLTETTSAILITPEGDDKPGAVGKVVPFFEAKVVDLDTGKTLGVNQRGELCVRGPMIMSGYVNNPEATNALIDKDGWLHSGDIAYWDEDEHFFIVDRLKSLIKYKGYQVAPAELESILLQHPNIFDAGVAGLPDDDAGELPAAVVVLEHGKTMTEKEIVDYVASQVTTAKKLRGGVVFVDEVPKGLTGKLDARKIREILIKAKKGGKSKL

## O=C(Nc1cc2cc[nH]c2cn1)c1ccccc1 [OAC1, N-(1H-6-azaindol-5-yl)benzamide]
Human Oct4 promoter; 50 nM, two days after compound treatment
  activation of Oct4-luc at 50 nM: activated Oct4-luc considerably
Human Oct4 promoter; Homo sapiens, CV-1, 24 h, read-out: Oct4-luc Activity
  fold induction at 1 µM: ≥ 1.8
Human Oct4 promoter; [3]
  induction of Oct4-luc, comparison with known reprogramming enhancers (in words): potent induction
Human Oct4 promoter; read-out: Oct4-luc fold Induction
  fold induction at 1 µM: 5
Human Oct4 promoter; dose response 50 nM to 1 μM, 2 to 7 days
  concentration of highest induction of Oct4-luc: 1 µM
Human Oct4 promoter; [4]
  activation of human Oct4 reporter (in words): considerable activation
p53
  p53 expression level versus DMSO: no significant difference
Human Nanog promoter; 50 nM
  activation of Nanog-luc at 50 nM: substantial activation
Human Nanog promoter; Chlorocebus aethiops, CV-1, compound at 1 μM, Nanog-luc cells, triplicates
  fold induction at 1 µM: 4.5
Human Nanog promoter; [3]
  induction of Nanog-luc, comparison with known reprogramming enhancers (in words): potent induction
Human Nanog promoter; [4]
  activation of human Nanog reporter (in words): considerable activation
Luciferase [1]
  inhibition in ATLAS assay: no inhibition
Luciferase [2]
  EC50: 6.37 µM
